Measurements from article PMC6264177, “Synthesis and Characterization of (Z)-5-Arylmethylidene-rhodanines with Photosynthesis-Inhibiting Properties ^†” (Molecules, 2011).
Values joined by “and” are separate entries in the source; they are usually repeats but may differ in a detail not shown here. Equal values may be shown once. Read-outs that look alike come from different tables or passages of the source.

Assays:
[1] = Lipophilicity HPLC determination (capacity factor k / log k); type: physicochemical; details: RP-HPLC, C18 column, isocratic, MeOH 70% / H2O 30%
Protocol: The procedure was performed under isocratic conditions with methanol as an organic modifier in the mobile phase using an end-capped non-polar C18 stationary RP column. […] The HPLC separation process was monitored by Empower™ 2 Chromatography Data Software, Waters 2009 (Waters Corp., Milford, MA, USA). […] The detection wavelength of 210 nm was chosen. The KI methanolic solution was used for the dead time (tD) determination. Retention times (tR) were measured in minutes. […] Log k, calculated from the capacity factor k, is used as the lipophilicity index converted to log P scale.

[2] = tested on: photosynthetic electron transport (PET) in spinach chloroplasts; test: Inhibition of photosynthetic electron transport (PET) in spinach chloroplasts, DCPIP photoreduction; type: biochemical, Spinacia oleracea L.; details: DCPIP as electron acceptor, pH 7.2
Protocol: Chloroplasts were prepared from spinach (Spinacia oleracea L.) according to ref. [54]. The inhibition of photosynthetic electron transport (PET) in spinach chloroplasts was determined spectrophotometrically (Genesys 6, Thermo Scientific, USA) using an artificial electron acceptor 2,6-dichlorophenol-indophenol (DCIPP) according to ref. [55], and the rate of photosynthetic electron transport was monitored as a photoreduction of DCPIP. The measurements were carried out in phosphate buffer (0.02 mol/L, pH 7.2) containing sucrose (0.4 mol/L), MgCl2 (0.005 mol/L) and NaCl (0.015 mol/L). The chlorophyll content was 30 mg/L in these experiments, and the samples were irradiated (~100 W/m^2) from 10 cm distance with a halogen lamp (250 W) using a 4 cm water filter to prevent warming of the samples (suspension temperature 22 °C). The studied compounds were dissolved in DMSO due to their limited water solubility.

Chlorella vulgaris = test: Reduction of chlorophyll content in green algae Chlorella vulgaris; type: cell-based, Chlorella vulgaris Beij.; details: 168 h; for inhibition at 100 µM: 100 μmol/L of the compound, 7-day cultivation, read-out: Chlorella vulgaris reduction of Chl. cont.; for IC50: read-out: Chlorella vulgaris IC50 (50% reduction of chlorophyll content), 7-day cultivation
Protocol: (photoperiod 16 h light/8 h dark; photosynthetically active radiation (PAR) 80 μmol/m^2s; pH 7.2). The effect of rhodanine compounds on algal chlorophyll (Chl) content was determined after 7-day cultivation in the presence of the compounds tested, expressing the response as percentage of the corresponding values obtained for control. The Chl content in the algal suspension was determined spectrophotometrically (Genesys 6, Thermo Scientific, USA) after extraction into methanol according to Wellburn [58].

[3] = tested on: photosynthetic electron transport (PET) in spinach chloroplasts; set-up: method as in earlier work; details: standard DCMU; ref [56]; cited from earlier work
[4] = tested on: Daucus carota L. var. sativa DC; set-up: method as in doi:10.1271/bbb.60.1368; details: 0.3 mmol/L; ref [13]; cited from earlier work
[5] = tested on: seeds of Daucus carota L. var. sativa DC; set-up: method as in doi:10.1271/bbb.60.1368; details: 1 mmol/L; ref [13]; cited from earlier work
seeds of Sesamum indicum = tested on: seeds of Sesamum indicum; set-up: method as in doi:10.1271/bbb.60.1368; details: 1 mmol/L; ref [13]; cited from earlier work
[6] = tested on: photosynthetic electron transport; set-up: method as in doi:10.1584/jpestics.22.1; details: ref [14], read-out: IC50 of PET inhibition, cited from earlier work
[7] = tested on: cotyledons of Brassica rapa L.; details: 0.3 mmol/L; ref [11]; cited from earlier work
[8] = tested on: immature cells of Marchantia polymorpha; set-up: method as in doi:10.1584/jpestics.22.1; details: 1 mmol/L, within 90 hours; ref [14]; cited from earlier work

Row | Compound | log k [1] | IC50 [2] [µM] | inhibition at 100 µM (Chlorella vulgaris) [%] | other results
1 | O=C1NC(=S)S/C1=C\c1ccc(O)cc1O [Compound 3, (5Z)-5-(2,4-Hydroxybenzylidene)-2-thioxo-1,3-thiazolidin-4-one] | 0.2776 | – | 48.5 | IC50 (Chlorella vulgaris): 108 µM
2 | COc1cc(/C=C2\SC(=S)NC2=O)ccc1O [Compound 5, (5Z)-5-(4-Hydroxy-3-methoxybenzylidene)-2-thioxo-1,3-thiazolidin-4-one] | 0.3553 | – | 19.4 | –
3 | CN(C)c1ccc(/C=C2\SC(=S)NC2=O)cc1 [Compound 6, (5Z)-5-[(4-Dimethylamino)benzylidene]-2-thioxo-1,3-thiazolidin-4-one] | 0.6466 | – | 12.6 | –
4 | O=C1NC(=S)S/C1=C\c1ccccn1 [Compound 12, (5Z)-5-(Pyridin-2-ylmethylidene)-2-thioxo-1,3-thiazolidin-4-one] | 0.4864 | – | – | –
5 | O=C1NC(=S)S/C1=C\c1cccnc1 [Compound 13, (5Z)-5-(Pyridin-3-ylmethylidene)-2-thioxo-1,3-thiazolidin-4-one] | 0.4539 | – | – | –
6 | O=C1NC(=S)S/C1=C\c1ccncc1 [Compound 14, (5Z)-5-(Pyridin-4-ylmethylidene)-2-thioxo-1,3-thiazolidin-4-one] | 0.1878 | – | – | –
7 | O=C1NC(=S)S/C1=C\c1cnccn1 [Compound 15, (5Z)-5-(Pyrazin-2-ylmethylidene)-2-thioxo-1,3-thiazolidin-4-one] | 0.2359 | 216 | 1.8 | –
8 | O=C1NC(=S)S/C1=C\c1ccco1 [Compound 16, (5Z)-5-(Furan-2-ylmethylidene)-2-thioxo-1,3-thiazolidin-4-one] | 0.4656 | – | – | –
9 | CN(C)C(=O)Nc1ccc(Cl)c(Cl)c1 [DCMU, 3-(3,4-dichlorophenyl)-1,1-dimethylurea] | – | – | – | IC50 (Chlorella vulgaris): ~7.3 µM; IC50 [3]: ~1900 nM and 1900 nM
10 | O=C(O)CN1C(=O)CSC1=S [rhodanine-N-acetic acid] | – | – | – | inhibition of growth of Daucus carota [4]: strongly inhibited; inhibition of germination of seeds of Daucus carota [5]: inhibited; inhibition of germination of seeds of Sesamum indicum (seeds of Sesamum indicum): inhibited
11 | O=C1CSC(=S)N1 [rhodanine] | – | – | – | IC50 ([6]; assay done after illumination for 3 min): 100 µM; IC50 ([6]; normal 1 min assay): ~1000 µM; inhibition of growth of Daucus carota [4]: strongly inhibited; inhibition of germination of seeds of Daucus carota [5]: inhibited; inhibition of germination of seeds of Sesamum indicum (seeds of Sesamum indicum): inhibited; inhibition of chlorophyll synthesis in cotyledons [7]: strongly inhibited; inhibition of growth of immature cells [8]: completely inhibited

Further lines, with some results ahead:

Row | log k [1] | IC50 [2] [µM] | Compound | inhibition at 100 µM (Chlorella vulgaris) [%] | other results
12 | 0.4664 | 369 | O=C1NC(=S)S/C1=C\c1ccccc1O [Compound 2a, (5Z)-5-(2-Hydroxybenzylidene)-2-thioxo-1,3-thiazolidin-4-one] | 59 | IC50 (Chlorella vulgaris): 59.4 µM
13 | 0.2744 | 444 | O=C1NC(=S)S/C1=C\c1cccc(O)c1 [Compound 2b, (5Z)-5-(3-Hydroxybenzylidene)-2-thioxo-1,3-thiazolidin-4-one] | 9.6 | –
14 | 0.2641 | – | O=C1NC(=S)S/C1=C\c1ccc(O)cc1 [Compound 2c, (5Z)-5-(4-Hydroxybenzylidene)-2-thioxo-1,3-thiazolidin-4-one] | 29.8 | –
15 | 0.5867 | – | COc1ccccc1/C=C1\SC(=S)NC1=O [Compound 4a, (5Z)-5-(2-Methoxybenzylidene)-2-thioxo-1,3-thiazolidin-4-one] | – | –
16 | 0.5713 | 221 | COc1cccc(/C=C2\SC(=S)NC2=O)c1 [Compound 4b, (5Z)-5-(3-Methoxybenzylidene)-2-thioxo-1,3-thiazolidin-4-one] | – | –
17 | 0.5425 | 174 | COc1ccc(/C=C2\SC(=S)NC2=O)cc1 [Compound 4c, (5Z)-5-(4-Methoxybenzylidene)-2-thioxo-1,3-thiazolidin-4-one] | – | –
18 | 0.2254 | 428 | O=C1NC(=S)S/C1=C\c1ccccc1[N+](=O)[O-] [Compound 7a, (5Z)-5-(2-Nitrobenzylidene)-2-thioxo-1,3-thiazolidin-4-one] | – | –
19 | 0.2399 | 16.9 | O=C1NC(=S)S/C1=C\c1cccc([N+](=O)[O-])c1 [Compound 7b, (5Z)-5-(3-Nitrobenzylidene)-2-thioxo-1,3-thiazolidin-4-one] | 85.7 | IC50 (Chlorella vulgaris): 4.4 µM
20 | 0.2436 | 20.1 | O=C1NC(=S)S/C1=C\c1ccc([N+](=O)[O-])cc1 [Compound 7c, (5Z)-5-(4-Nitrobenzylidene)-2-thioxo-1,3-thiazolidin-4-one] | 87.1 | IC50 (Chlorella vulgaris): 21.9 µM
21 | 0.8108 | 99.5 | O=C1NC(=S)S/C1=C\c1ccccc1F [Compound 8a, (5Z)-5-(2-Fluorobenzylidene)-2-thioxo-1,3-thiazolidin-4-one] | – | –
22 | 0.8204 | 23.8 | O=C1NC(=S)S/C1=C\c1cccc(F)c1 [Compound 8b, (5Z)-5-(3-Fluorobenzylidene)-2-thioxo-1,3-thiazolidin-4-one] | – | –
23 | 0.7909 | 63.5 | O=C1NC(=S)S/C1=C\c1ccc(F)cc1 [Compound 8c, (5Z)-5-(4-Fluorobenzylidene)-2-thioxo-1,3-thiazolidin-4-one] | – | –
24 | 0.9019 | 53.3 | O=C1NC(=S)S/C1=C\c1ccccc1Cl [Compound 9a, (5Z)-5-(2-Chlorobenzylidene)-2-thioxo-1,3-thiazolidin-4-one] | – | –
25 | 1.0270 | 17 | O=C1NC(=S)S/C1=C\c1cccc(Cl)c1 [Compound 9b, (5Z)-5-(3-Chlorobenzylidene)-2-thioxo-1,3-thiazolidin-4-one] | – | –
26 | 0.5936 | 6 | O=C1NC(=S)S/C1=C\c1ccc(Cl)cc1 [Compound 9c, (5Z)-5-(4-Chlorobenzylidene)-2-thioxo-1,3-thiazolidin-4-one] | 84.8 | IC50 (Chlorella vulgaris): 1.3 µM
27 | 0.9368 | 18.1 | O=C1NC(=S)S/C1=C\c1ccccc1Br [Compound 10a, (5Z)-5-(2-Bromobenzylidene)-2-thioxo-1,3-thiazolidin-4-one] | – | –
28 | 1.0820 | 5.2 | O=C1NC(=S)S/C1=C\c1cccc(Br)c1 [Compound 10b, (5Z)-5-(3-Bromobenzylidene)-2-thioxo-1,3-thiazolidin-4-one] | – | –
29 | 0.6940 | 3 | O=C1NC(=S)S/C1=C\c1ccc(Br)cc1 [Compound 10c, (5Z)-5-(4-Bromobenzylidene)-2-thioxo-1,3-thiazolidin-4-one] | – | –
30 | 0.4751 | 127 | O=C1/C(=C/c2ccccc2[N+](=O)[O-])SC(=S)N1CCO [Compound 11a, (5Z)-3-(2-Hydroxyethyl)-5-(2-nitrobenzylidene)-2-thioxo-1,3-thiazolidin-4-one] | – | –
31 | 0.6077 | – | O=C1/C(=C/c2cccc([N+](=O)[O-])c2)SC(=S)N1CCO [Compound 11b, (5Z)-3-(2-Hydroxyethyl)-5-(3-nitrobenzylidene)-2-thioxo-1,3-thiazolidin-4-one] | – | –
32 | 0.6349 | – | O=C1/C(=C/c2ccc([N+](=O)[O-])cc2)SC(=S)N1CCO [Compound 11c, (5Z)-3-(2-Hydroxyethyl)-5-(4-nitrobenzylidene)-2-thioxo-1,3-thiazolidin-4-one] | – | –
